The values below come from US20030104974A1, “Dual inhibitorsof PDE 7 and PDE 4” (priority 2001, published 2003).

One series has as its target T1, PDE7 (Homo sapiens, UniProt Q13946).
T1 construct: endogenous in cells; host or cells: Hut78 cells (crude lysate)
The experiment in a line: SPA assay for cAMP, PDE7 in Hut78 cell lysate treated with Zardaverine. Format: biochemical. Particulars: for IC50: Hut78 cell lysate, SPA. The method, then:
Hut78 cells were grown in 10% FCS in Iscoves Modified Dulbecco's Medium (Gibco BRL-Life Technologies, Grand Island, N.Y.) with antibiotics. Cells were centrifuged and resuspended in four volumes of [40 mM Tris (pH 7.5)/50 μM EDTA/200 μM PMSF with a cocktail of Protease inhibitors (Boehringher Mannheim, Indianapolis, Ind.)] at 4 C. Cells were homogenized using a Virtis homogenizer, and the lysate was centrifuged twice for 15 min at 15,000×g. Glycerol was added to a final volume of 50% for storage at −20C.
(§1) Inhibition of PDE activity in Hut78 cell lysate was determined using an SPA specific for cAMP (Amersham Pharmacia Biotech, Buckinghamshire, UK) according to the manufacturers instructions with minor modifications. Enzyme assays were performed at room temperature in the presence of 50 mM Tris HCl, pH7.5, containing 8.3 mM MgCl2, 1.7 mM EGTA and 0.5 mg/mL BSA. Each assay was performed in a 100 μL reaction volume in 96 well microtitre plates containing the above buffer, 0.3 ul of Hut78 cell lysate treated with 2 uM Zardaverine to inhibit PDE3 and PDE4, 0.05 uCi of [5′,8-3H] Adenosine 3′,5′-cyclic phosphate as an ammonium salt for 20 min. The reaction was terminated by the addition of 50 μl PDE SPA beads (1 mg) water with 10 mM cold cAMP (Sigma, St. Louis Mo.). The reaction mix was allowed to settle for 20 minutes before counting in a Top Count-NXT scintillation counter (Packard BioScience, Meriden, Conn.). […] The following PDEs/activators and enzyme sources were used: PDE1, bovine (Sigma St Louis), calmodulin; PDE2, rat kidney, cGMP; PDE3, human platelet; PDE4, rat kidney; PDE5, human platelet, and PDE6, bovine retina.
(§2) The LPS human PBMC TNF production assay was performed as described above.

Another series concerns PDE1. Kind of series: SPA assay, PDE1 (3H-cyclic GMP substrate, calmodulin). The following applies: bovine PDE1, calmodulin. Format: biochemical. The method, then:
as §1, §2

Another series deals with T2, PDE3 (Homo sapiens, UniProt Q14432).
T2 construct: PDE3, human platelet; from tissue; host or cells: human platelet
T2 sequence (Q14432 whole entry): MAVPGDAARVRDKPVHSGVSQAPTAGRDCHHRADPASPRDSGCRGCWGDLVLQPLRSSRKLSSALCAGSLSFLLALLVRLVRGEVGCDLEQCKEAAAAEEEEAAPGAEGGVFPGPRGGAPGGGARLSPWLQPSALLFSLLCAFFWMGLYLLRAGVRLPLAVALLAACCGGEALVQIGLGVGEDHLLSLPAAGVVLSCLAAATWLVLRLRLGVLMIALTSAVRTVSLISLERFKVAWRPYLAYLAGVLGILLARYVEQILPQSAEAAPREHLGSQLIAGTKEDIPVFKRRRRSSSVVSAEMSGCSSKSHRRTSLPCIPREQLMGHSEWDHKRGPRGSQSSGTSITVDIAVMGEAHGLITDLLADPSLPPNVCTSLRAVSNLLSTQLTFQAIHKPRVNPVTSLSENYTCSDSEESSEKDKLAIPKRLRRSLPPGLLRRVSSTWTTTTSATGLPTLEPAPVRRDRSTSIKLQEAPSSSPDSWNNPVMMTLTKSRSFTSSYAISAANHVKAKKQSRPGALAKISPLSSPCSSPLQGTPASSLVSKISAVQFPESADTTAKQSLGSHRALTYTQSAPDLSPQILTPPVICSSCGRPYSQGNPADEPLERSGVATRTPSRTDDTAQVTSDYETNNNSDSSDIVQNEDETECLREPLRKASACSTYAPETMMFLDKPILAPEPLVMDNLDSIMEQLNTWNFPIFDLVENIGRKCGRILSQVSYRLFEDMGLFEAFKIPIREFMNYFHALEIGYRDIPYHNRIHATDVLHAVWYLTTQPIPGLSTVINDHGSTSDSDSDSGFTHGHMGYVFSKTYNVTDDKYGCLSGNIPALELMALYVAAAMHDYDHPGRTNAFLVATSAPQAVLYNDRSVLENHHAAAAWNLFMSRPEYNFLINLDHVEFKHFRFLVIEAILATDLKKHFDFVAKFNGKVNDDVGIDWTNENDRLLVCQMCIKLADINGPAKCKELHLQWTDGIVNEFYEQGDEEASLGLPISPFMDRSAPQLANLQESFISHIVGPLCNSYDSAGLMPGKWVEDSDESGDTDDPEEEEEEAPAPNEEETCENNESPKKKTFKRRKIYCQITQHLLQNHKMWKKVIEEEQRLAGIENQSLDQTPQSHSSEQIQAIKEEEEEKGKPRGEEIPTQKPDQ
The experiment in a line: SPA assay, PDE3 (human platelet). Format: biochemical. The method, then:
as §1, §2

A further series concerns PDE4. The experiment in a line: SPA assay, PDE4 (rat kidney). Format: biochemical. The method, then:
as §1, §2

A further series addresses T3, PDE5 (Homo sapiens, UniProt O76074).
T3 construct: PDE5, human platelet; from tissue; host or cells: human platelet
The experiment in a line: SPA assay, PDE5 (human platelet, 3H-cyclic GMP substrate). Format: biochemical. The method, then: as §1, §2

The next series concerns the target T4, PDE6 (Bos taurus, UniProt P11541+P23439).
T4 construct: PDE6, bovine retina; from tissue; host or cells: bovine retina
T4 sequence (P11541 2-856 limits assumed): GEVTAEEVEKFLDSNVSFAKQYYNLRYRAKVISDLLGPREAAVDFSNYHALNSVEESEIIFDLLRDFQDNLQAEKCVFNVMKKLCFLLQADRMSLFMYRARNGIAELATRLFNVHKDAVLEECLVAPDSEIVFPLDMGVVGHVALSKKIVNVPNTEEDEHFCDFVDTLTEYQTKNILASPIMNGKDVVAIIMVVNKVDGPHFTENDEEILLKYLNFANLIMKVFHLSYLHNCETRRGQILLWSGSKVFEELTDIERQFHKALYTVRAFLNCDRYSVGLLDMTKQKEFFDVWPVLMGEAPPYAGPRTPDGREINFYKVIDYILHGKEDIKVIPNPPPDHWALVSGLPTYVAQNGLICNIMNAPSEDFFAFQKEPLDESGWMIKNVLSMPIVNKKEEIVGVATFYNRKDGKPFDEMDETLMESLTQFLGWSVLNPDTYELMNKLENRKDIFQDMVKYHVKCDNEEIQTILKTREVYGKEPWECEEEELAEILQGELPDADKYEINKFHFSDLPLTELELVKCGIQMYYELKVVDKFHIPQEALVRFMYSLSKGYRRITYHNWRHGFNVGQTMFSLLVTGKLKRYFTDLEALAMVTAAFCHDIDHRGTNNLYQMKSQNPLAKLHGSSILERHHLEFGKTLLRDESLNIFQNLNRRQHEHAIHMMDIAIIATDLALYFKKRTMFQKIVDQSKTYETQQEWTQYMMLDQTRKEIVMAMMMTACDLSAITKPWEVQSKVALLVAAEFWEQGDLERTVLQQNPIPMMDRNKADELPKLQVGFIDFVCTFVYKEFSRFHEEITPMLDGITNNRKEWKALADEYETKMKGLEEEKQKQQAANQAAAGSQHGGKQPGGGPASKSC
T4 sequence (P23439 2-850 limits assumed): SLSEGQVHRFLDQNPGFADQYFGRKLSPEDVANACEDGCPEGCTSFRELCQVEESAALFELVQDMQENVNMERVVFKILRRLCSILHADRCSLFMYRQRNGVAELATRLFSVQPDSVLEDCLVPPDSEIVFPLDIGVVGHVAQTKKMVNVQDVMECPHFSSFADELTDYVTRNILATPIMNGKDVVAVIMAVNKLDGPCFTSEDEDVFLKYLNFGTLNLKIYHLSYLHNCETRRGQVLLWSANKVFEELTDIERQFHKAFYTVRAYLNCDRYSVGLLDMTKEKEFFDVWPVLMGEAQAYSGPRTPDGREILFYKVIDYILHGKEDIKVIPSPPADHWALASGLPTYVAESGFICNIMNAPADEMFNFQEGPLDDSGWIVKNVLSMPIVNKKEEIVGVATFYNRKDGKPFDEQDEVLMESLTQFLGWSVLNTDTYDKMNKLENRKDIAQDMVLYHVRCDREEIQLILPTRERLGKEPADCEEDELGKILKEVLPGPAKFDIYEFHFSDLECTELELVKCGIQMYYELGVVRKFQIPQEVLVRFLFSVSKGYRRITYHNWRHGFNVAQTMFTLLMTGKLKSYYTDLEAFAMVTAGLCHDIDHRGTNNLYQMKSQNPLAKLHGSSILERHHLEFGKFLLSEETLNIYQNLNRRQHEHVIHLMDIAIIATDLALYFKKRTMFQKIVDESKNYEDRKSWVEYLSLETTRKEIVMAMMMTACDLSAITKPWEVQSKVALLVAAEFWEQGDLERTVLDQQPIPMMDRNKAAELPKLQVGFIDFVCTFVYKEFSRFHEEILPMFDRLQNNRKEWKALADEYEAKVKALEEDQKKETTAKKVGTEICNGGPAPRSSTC
Kind of series: SPA assay, PDE6 (bovine retina, 3H-cyclic GMP substrate). Format: biochemical. The method, then: as §1, §2

Series [1] relates to LPS human PBMC TNF production. Kind of series: LPS human PBMC TNF production assay. Format: cell-based. Particulars: LPS 6.25 ng/ml, 4 h. The method, then:
Peripheral blood mononuclear cells (PBMC) were isolated from whole blood by density gradient centrifugation over Lymphoprep, 1.077. Cells were plated into 96 well U-bottom plates at 2.5×10^5 cells/well in 10% FBS RPMI 1640 (Life Technologies/Gibco-BRL) containing 10 ug/ml anti-CD3 (G19-4, Bristol-Myers Squibb P.R.I., Princeton, N.J.) and lug/ml anti-CD28 (9.3, Bristol-Myers Squibb P.R.I.) in the presence and absence of inhibitors. DMSO (used as a solvent for inhibitors) was added to the medium at 0.1% final concentration. The total volume per well was 200 μL. Cells were incubated at 37 C. 5% CO2 for 3 days, at which time 0.5 μCi of ^3H-thymidine was added to each well. Six hours following the addition of ^3H-thmidine, the plates were harvested onto filter plates, 30 ul EcoLite scintillant (ICN, Costa Mesa, Calif.) was added per well, and plates read on a Top Count-NXT scintillation counter.
The ability of compounds to inhibit the production and secretion of TNFα from leukocytes was performed using either PBMC (obtained as described above) or the THP-1 cell line as a source of monocytes. Compounds were diluted in RPMI 1640 supplemented with 10% FBS and DMSO at a final concentration of 0.2%. […] Soluble TNFα was detected by ELISA developed by R&D Systems (Minneapolis, Minn.) according to the manufacturers instructions. […]

The test system of series [2] is Lipopolysaccharide (LPS) induced tumor necrosis factor (TNF) production. The experiment in a line: LPS induced TNF production in mice (Examples I-1, I-2). Format: in vivo. Particulars: for inhibited TNF production: Example I-2; for reduction in serum TNF: Example I-1. The method, then: Mice were exposed to lipopolysaccharide to induce production of tumor necrosis factor as described by Cornwell, et. al. (Lipopolysaccharide, but not lethal infection, releases tumor necrosis factor in mice. Cornwell, R. D.; Golenbock, D. T.; Proctor, R. A. Adv.; Exp. Med. Biol. (1990), 256(Endotoxin), 585-8.). The mice were divided in to groups of eight animals each. All animals received an intraperitoneal (IP) injection of 50 μg/kg of LPS. The vehicle control group of animals received 0.2 mL of a vehicle of tween80 (5%), 95% ethanol (5%) and water 90%, sixty minutes prior to administration of LPS, and an IP injection of 0.2 mL of water fifteen minutes prior to administration of LPS. […] A group of mice (F1 group) were administered 0.2 mL of a vehicle of tween80 (5%), 95% ethanol (5%) and water 90%, sixty minutes prior to administration of LPS, and Example F1, at a dose of 7.5 mg/kg, IP in water, fifteen minutes prior to administration of LPS. […] A group of mice (dexamethasone group) were administered a 5 mg/kg dose of dexamethasone in a vehicle of tween80 (5%), 95% ethanol (5%) and water 90%, sixty minutes prior to administration of LPS, and 0.2 mL of water IP, fifteen minutes prior to administration of LPS.
Cilomilast inhibited TNF production by 56% (p<0.05). […] Finally the dexamethasone control inhibited TNF production 94%.

Series [3] is described as follows: Pharmacokinetic data in mice for Example F1 and rolipram. Format: in vivo. The following applies: for Cmax: mouse, plasma.
Setting [4] is: mice, F1 30 mg/kg IP, rolipram 10 mg orally.

Where two headings read alike, the source gives them in different places.

T1 sequence (Q13946 whole entry): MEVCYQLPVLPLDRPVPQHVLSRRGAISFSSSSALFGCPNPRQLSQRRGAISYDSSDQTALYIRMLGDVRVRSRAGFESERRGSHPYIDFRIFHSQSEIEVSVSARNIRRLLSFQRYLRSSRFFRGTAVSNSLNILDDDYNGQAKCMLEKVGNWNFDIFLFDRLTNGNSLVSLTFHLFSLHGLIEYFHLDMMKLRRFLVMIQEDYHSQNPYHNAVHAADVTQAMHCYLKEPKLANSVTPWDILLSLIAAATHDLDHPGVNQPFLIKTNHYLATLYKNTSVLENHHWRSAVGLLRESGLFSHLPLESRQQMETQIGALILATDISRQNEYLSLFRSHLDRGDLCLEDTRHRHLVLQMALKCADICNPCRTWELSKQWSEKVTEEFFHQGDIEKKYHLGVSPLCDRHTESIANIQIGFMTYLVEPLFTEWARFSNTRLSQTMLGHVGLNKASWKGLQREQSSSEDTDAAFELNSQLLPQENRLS

Regarding `CCOC(=O)c1sc(Nc2nc(N3CCC(O)CC3)cc(N3CCC(O)CC3)n2)nc1C` [Example F2, 2-[4,6-Bis-(4-hydroxy-piperidin-1-yl)-pyrimidin-2-ylamino]-4-methyl-thiazole-5-carboxylic Acid Ethyl Ester], the IC50 (usually the concentration that gives 50% inhibition) turned out to be 0.06 µM on PDE7; 4.8 µM in the series with PDE1; 20 µM against PDE3; 3.2 µM in the series with PDE4; 0.72 µM on PDE5; 0.73 µM against PDE6. Also, the IC50 in [1] is greater than 25 µM. Moreover, the “inhibited TNF production” value in series [2] (F2 30 mg/kg, not statistically significant) was determined as 33.7%.
In turn, `COc1ccc(C2CNC(=O)C2)cc1OC1CCCC1` (centres unmarked) [rolipram, reference compound] gave an IC50 against PDE7 greater than 10 µM. Moreover, in series [3] (setting [4]), the “Cmax of Rolipram reduced by a factor by co-administration with F1” value came to 3 factor. Besides, the peak level in series [3] (po, 10 mg) (Cmax) was 290 nM. For the same compound, the “reduction in serum TNF” value in series [2] (rolipram 5 mg/kg oral 60 min prior to LPS 50 μg/kg IP, vs vehicle) is 54%.
For the compound `COc1ccc([C@]2(C#N)CC[C@@H](C(=O)O)CC2)cc1OC1CCCC1` [cilomilast, reference compound], the IC50 at PDE7 is greater than 50 µM; with PDE1, 3.4 µM; against PDE3, greater than 10 µM; in the series with PDE4 it was 0.03 µM; against PDE5, greater than 10 µM; in series [1] it was 0.43 µM. Also, the “inhibited TNF production” value in series [2] (cilomilast 1 mg/kg) is given as 56%.
`CCOC(=O)c1sc(Nc2nc(NCc3cc(OC)c(OC)c(OC)c3)cc(N3CCC(N(C)C)CC3)n2)nc1C` [Example F1, 2-[[4-[4-(Dimethylamino)-1-piperidinyl]-6-[[(3,4,5-trimethoxphenyl)methyl]amino]-2-pyrimidinyl]amino]-4-methyl-5-thiazolecarboxylic Acid, Ethyl Ester]: the IC50 against PDE7 was 0.03 µM; in the series on PDE1, 4.3 µM; on PDE3 it was 32 µM; with PDE4, 3 µM; against PDE5, 2.8 µM; on PDE6, 7.5 µM. Besides, the “selective for PDE7 over PDE4” value on PDE7 (ratio of PDE4 and PDE7 IC50) turned out to be 100 fold. Moreover, the “plasma concentration of F1 compared with its PDE4 IC50” value in [3] (mice, F1 30 mg/kg) was “does not reach the PDE4 IC50”. In [3] (setting [4]), the “change of Cmax of F1 by co-administration of rolipram” value is “essentially unchanged”. Further, the Cmax (commonly the maximum level reached in the sampled fluid or tissue) in series [3] (mice, F1 30 mg/kg IP alone, read-out: Cmax, F1) came out at 2200 nM. Besides, the “reduction in serum TNF” value in series [2] (F1 7.5 mg/kg IP 15 min prior to LPS 50 μg/kg IP, vs vehicle) came out at 52%.
Regarding `C[C@@H]1C[C@H]2[C@@H]3CCC4=CC(=O)C=C[C@]4(C)[C@@]3(F)[C@@H](O)C[C@]2(C)[C@@]1(O)C(=O)CO` [dexamethasone], in series [2] (dexamethasone 5 mg/kg 60 min prior to LPS), the “reduction in serum TNF” value was 93%. For the same compound, the “inhibited TNF production” value in series [2] (dexamethasone control) came to 94%.
